We go through four compounds from patent publication US12077503B2, “Substituted cyclic amides and their use as herbicides” (FMC CORPORATION, priority 2015, dated 2024).

Read-outs that look alike come from different tables or passages of the source.

Common to all, as to type: in vivo
The test system of assay [1] is ducksalad (Heteranthera limosa). Kind of assay: Test B flooded paddy test. The conditions noted are these: Heteranthera limosa, Flood, 250 g ai/ha. Summed up:
(§1)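 Visual ratings (0 none to 100 complete control) are relative to untreated plants, taken 13–15 d after treatment in a greenhouse. Test material went straight into floodwater standing 3 cm above the soil, kept constant, on plants at the 2-leaf stage.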

A further assay deals with rice (Oryra sativa). In words: Test B flooded paddy test. The conditions noted are these: Oryza sativa, Flood, 250 g ai/ha. The essentials:
as §1

Assay [2] has as its system sedge, umbrella (small-flower umbrella sedge, Cyperus difformis). Kind of assay: Test B flooded paddy test. To be noted: Cyperus difformis, Flood, 250 g ai/ha. The essentials: as §1
In assay [3] the test system is barnyardgrass (Echinochloa crus-galli). In words: Test B flooded paddy test. The conditions noted are these: Echinochloa crus-galli, Flood, 250 g ai/ha. Summed up: as §1
Assay [4] deals with ryegrass, Italian (Italian ryegrass, Lolium multiflorum). In words: Test A postemergence. The conditions noted are these: Lolium multiflorum, post-emergence, 240 h; for pest or weed control at 125 g/ha: 125 g ai/ha. The essentials:
(§2)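 Ratings of 0 (no effect) to 100 (complete control) come from visual comparison with untreated controls roughly 10 d after treatment. Test chemicals, formulated in a non-phytotoxic solvent mixture with surfactant, were applied either as a preemergence directed soil spray on seeded soil or postemergence to one- to two-leaf plants 2 to 10 cm tall.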

The subject of assay [5] is pigweed (Amaranthus retroflexus). In words: Test A postemergence. To be noted: Amaranthus retroflexus, post-emergence, 240 h; for pest or weed control at 125 g/ha: 125 g ai/ha. The essentials: as §2
The next assay concerns Kochia (Kochia scoparia). Kind of assay: Test A postemergence. The conditions noted are these: Bassia scoparia, post-emergence, 240 h; for pest or weed control at 125 g/ha: 125 g ai/ha. Summed up: as §2
The subject of assay [6] is Galium (catchweed bedstraw, Galium aparine). Kind of assay: Test A postemergence. To be noted: Galium, post-emergence, 240 h; for pest or weed control at 125 g/ha: 125 g ai/ha. The essentials:
as §2

Assay [7] has as its system blackgrass (Alopecurus myosuroides). Kind of assay: Test A postemergence. To be noted: Alopecurus myosuroides, post-emergence, 240 h; for pest or weed control at 125 g/ha: 125 g ai/ha. The essentials: as §2
In assay [8] the test system is barnyardgrass (Echinochloa crus-galli). Kind of assay: Test A postemergence. To be noted: Echinochloa crus-galli, post-emergence, 240 h; for pest or weed control at 125 g/ha: 125 g ai/ha. Summed up:
as §2

The subject of assay [9] is wheat (Triticum aestivum). In words: Test A postemergence. To be noted: Triticum aestivum, post-emergence, 240 h; for plant injury at 125 g/ha: 125 g ai/ha. The essentials:
as §2

The subject of assay [10] is ragweed (common ragweed, Ambrosia elatior). Kind of assay: Test A postemergence. To be noted: Ambrosia artemisiifolia, post-emergence, 240 h; for pest or weed control at 125 g/ha: 125 g ai/ha. Summed up:
as §2

Another assay has as its system corn (Zea mays). In words: Test A postemergence. The conditions noted are these: Zea mays, post-emergence, 240 h; for Corn plant response rating (crop injury, 0 = no effect, 100 = complete kill) at 125 g/ha: postemergence, visual injury after approximately 10 d. Summed up:
as §2

Assay [11] has as its system giant foxtail (Setaria faberii). Kind of assay: Test A postemergence. To be noted: Setaria faberi, post-emergence, 240 h; for pest or weed control at 125 g/ha: 125 g ai/ha. Summed up:
as §2

[12] abbreviates: scale of 0 to 100 where 0 is no effect and 100 is complete control, read-out: Ducksalad plant response rating.
Where [13] appears, read: scale of 0 to 100 where 0 is no effect and 100 is complete control, read-out: Rice plant response rating.
Where [14] appears, read: scale of 0 to 100 where 0 is no effect and 100 is complete control, read-out: Sedge, Umbrella plant response rating.
The mark [15] stands for this setting: scale of 0 to 100 where 0 is no effect and 100 is complete control, read-out: Barnyardgrass plant response rating.
The mark [16] stands for this setting: postemergence, visual injury after approximately 10 d, 0 to 100 scale (0 no effect, 100 complete control), read-out: Plant response rating, Ryegrass, Italian.
[17] abbreviates: postemergence, visual injury after approximately 10 d, 0 to 100 scale (0 no effect, 100 complete control), read-out: Plant response rating, Pigweed.
The mark [18] stands for this setting: postemergence, visual injury after approximately 10 d, 0 to 100 scale (0 no effect, 100 complete control), read-out: Plant response rating, Kochia.
[19] abbreviates: postemergence, visual injury after approximately 10 d, 0 to 100 scale (0 no effect, 100 complete control), read-out: Plant response rating, Galium.
Where [20] appears, read: postemergence, visual injury after approximately 10 d, 0 to 100 scale (0 no effect, 100 complete control), read-out: Plant response rating, Blackgrass.
[21] abbreviates: postemergence, visual injury after approximately 10 d, 0 to 100 scale (0 no effect, 100 complete control), read-out: Plant response rating, Barnyardgrass.
Setting [22] is: postemergence, visual injury after approximately 10 d, 0 to 100 scale (0 no effect, 100 complete control), read-out: Plant response rating, Wheat.
[23] abbreviates: postemergence, visual injury after approximately 10 d, 0 to 100 scale (0 no effect, 100 complete control), read-out: Plant response rating, Ragweed.
The mark [24] stands for this setting: 125 g ai/ha, 0 to 100 scale (0 no effect, 100 complete control).
[25] abbreviates: postemergence, visual injury after approximately 10 d, 0 to 100 scale (0 no effect, 100 complete control), read-out: Plant response rating, Foxtail, Giant.

Take `Cc1ccc(NC(=O)[C@H]2C(=O)N(C)C[C@@H]2c2cc(F)cc(F)c2)c(F)c1` [Compound 760]: the pest or weed control at 250 g/ha in [1] (setting [12]) was found to be 80%; in the assay with rice (Oryra sativa) (setting [13]) it was 0%; in assay [2] (setting [14]) it was 0%; in [3] (setting [15]), 50%. Also, the pest or weed control at 125 g/ha in assay [4] (setting [16]) amounted to 0%; in [5] (setting [17]), 0%; with Kochia (Kochia scoparia) (setting [18]), 0%; in assay [6] (setting [19]), 0%; in assay [7] (setting [20]), 0%; in [8] (setting [21]) it was 80%. The results for the pest or weed control at 125 g/ha in assay [10] (setting [23]) and in [11] (setting [25]) were 0% and 80%, respectively. In addition, the plant injury at 125 g/ha in assay [9] (setting [22]) was 0%. The compound also returned a Corn plant response rating (crop injury, 0 = no effect, 100 = complete kill) at 125 g/ha with corn (Zea mays) (setting [24]) of 0%.

Consider `C=CCOc1cccc(C2CN(C)C(=O)C2C(=O)Nc2ccccc2F)c1` (stereo not drawn) [Compound 1329], for which the pest or weed control at 250 g/ha was determined as 70% in assay [1] (360 h, visually evaluated after 13 to 15 d, read-out: Plant response rating, Ducksalad (0 to 100 scale where 0 is no effect and 100 is complete control)); 0% in the assay with rice (Oryra sativa) (360 h, visually evaluated after 13 to 15 d, read-out: Plant response rating, Rice (0 to 100 scale where 0 is no effect and 100 is complete control)); 0% in assay [2] (360 h, visually evaluated after 13 to 15 d, read-out: Plant response rating, Sedge, Umbrella (0 to 100 scale where 0 is no effect and 100 is complete control)); 60% in assay [3] (360 h, visually evaluated after 13 to 15 d, read-out: Plant response rating, Barnyardgrass (0 to 100 scale where 0 is no effect and 100 is complete control)). Moreover, the pest or weed control at 125 g/ha in assay [4] (Postemergence, visual rating about 10 d after treatment, read-out: Ryegrass, Italian plant response rating (0 to 100 scale)) is 0%; in assay [5] (Postemergence, visual rating about 10 d after treatment, read-out: Pigweed plant response rating (0 to 100 scale)), 0%; in the assay with Kochia (Kochia scoparia) (Postemergence, visual rating about 10 d after treatment, read-out: Kochia plant response rating (0 to 100 scale)), 40%; in [6] (Postemergence, visual rating about 10 d after treatment, read-out: Galium plant response rating (0 to 100 scale)), 30%; in [7] (Postemergence, visual rating about 10 d after treatment, read-out: Blackgrass plant response rating (0 to 100 scale)) it was 20%; in [8] (Postemergence, visual rating about 10 d after treatment, read-out: Barnyardgrass plant response rating (0 to 100 scale, 0 no effect, 100 complete control)), 90%. The pest or weed control at 125 g/ha came to 0% in assay [10] (Postemergence, visual rating about 10 d after treatment, read-out: Ragweed plant response rating (0 to 100 scale)) and 90% in assay [11] (Postemergence, visual rating about 10 d after treatment, read-out: Foxtail, Giant plant response rating (0 to 100 scale)). For the same compound, the pest or weed control at 500 g/ha stood at 50% in assay [4] (Postemergence, 500 g ai/ha, visual injury, 0 to 100 scale (0 no effect, 100 complete control), approx. 10 d, read-out: Plant response rating, Ryegrass, Italian); 0% in assay [5] (Postemergence, 500 g ai/ha, visual injury, 0 to 100 scale (0 no effect, 100 complete control), approx. 10 d, read-out: Plant response rating, Pigweed); 50% in the assay on Kochia (Kochia scoparia) (Postemergence, 500 g ai/ha, visual injury, 0 to 100 scale (0 no effect, 100 complete control), approx. 10 d, read-out: Plant response rating, Kochia); 60% in [6] (Postemergence, 500 g ai/ha, visual injury, 0 to 100 scale (0 no effect, 100 complete control), approx. 10 d, read-out: Plant response rating, Galium); 60% in [7] (Postemergence, 500 g ai/ha, visual injury, 0 to 100 scale (0 no effect, 100 complete control), approx. 10 d, read-out: Plant response rating, Blackgrass); 90% in assay [8] (Postemergence, 500 g ai/ha, visual injury, 0 to 100 scale (0 no effect, 100 complete control), approx. 10 d, read-out: Plant response rating, Barnyardgrass). For the same compound, the pest or weed control at 500 g/ha came to 0% in assay [10] (Postemergence, 500 g ai/ha, visual injury, 0 to 100 scale (0 no effect, 100 complete control), approx. 10 d, read-out: Plant response rating, Ragweed) and 90% in [11] (Postemergence, 500 g ai/ha, visual injury, 0 to 100 scale (0 no effect, 100 complete control), approx. 10 d, read-out: Plant response rating, Foxtail, Giant). Moreover, the plant injury at 125 g/ha in [9] (Postemergence, visual rating about 10 d after treatment, read-out: Wheat plant response rating (0 to 100 scale)) stood at 0%; in the assay with corn (Zea mays) (125 g ai/ha, Postemergence, visual rating about 10 d after treatment, read-out: Corn plant response rating (0 to 100 scale)), 30%. The plant injury at 500 g/ha in [9] (Postemergence, 500 g ai/ha, visual injury, 0 to 100 scale (0 no effect, 100 complete control), approx. 10 d, read-out: Plant response rating, Wheat) amounted to 20%. For the same compound, in the assay with corn (Zea mays) (Postemergence, 500 g ai/ha, visual injury, 0 to 100 scale (0 no effect, 100 complete control), approx. 10 d), the Corn plant response rating (crop injury, 0 = no effect, 100 = complete kill) at 500 g/ha turned out to be 50%.

`CCc1cc(CC)cc([C@H]2CN(C)C(=O)[C@@H]2C(=O)Nc2ccccc2F)c1` [Compound 735]: the pest or weed control at 250 g/ha in assay [1] (setting [12]) came to 40%; in the assay with rice (Oryra sativa) (setting [13]) it was 0%; in assay [2] (setting [14]) it was 0%; in assay [3] (setting [15]), 60%. Further, the pest or weed control at 125 g/ha stood at 60% in assay [4] (setting [16]); 20% in assay [5] (setting [17]); 30% in the assay on Kochia (Kochia scoparia) (setting [18]); 40% in [6] (setting [19]); 50% in [7] (setting [20]); 90% in assay [8] (setting [21]). In addition, the values for the pest or weed control at 125 g/ha in [10] (setting [23]) and in assay [11] (setting [25]) were 0% and 90%, respectively. For the same compound, the plant injury at 125 g/ha in assay [9] (setting [22]) was determined as 50%. Moreover, the Corn plant response rating (crop injury, 0 = no effect, 100 = complete kill) at 125 g/ha with corn (Zea mays) (setting [24]) stood at 80%.

Regarding `COc1ccc([C@H]2CNC(=O)[C@@H]2C(=O)Nc2ccccc2S(C)(=O)=O)cc1F` [Compound 721], the pest or weed control at 250 g/ha in assay [1] (setting [12]) is 100%; in the assay on rice (Oryra sativa) (setting [13]), 0%; in assay [2] (setting [14]) it was 0%; in assay [3] (setting [15]), 0%. The pest or weed control at 125 g/ha is 0% in assay [4] (setting [16]); 0% in assay [5] (setting [17]); 0% with Kochia (Kochia scoparia) (setting [18]); 20% in assay [6] (setting [19]); 0% in assay [7] (setting [20]); 10% in assay [8] (setting [21]). For the same compound, the pest or weed control at 125 g/ha in assay [10] (setting [23]) and in assay [11] (setting [25]) was 0% in each case. Moreover, the plant injury at 125 g/ha in assay [9] (setting [22]) came out at 0%. The same compound gave a Corn plant response rating (crop injury, 0 = no effect, 100 = complete kill) at 125 g/ha in the assay on corn (Zea mays) (setting [24]) of 0%.
